Results reported in ChEMBL document CHEMBL4184119, “Identification of 2-thioxoimidazolidin-4-one derivatives as novel noncovalent proteasome and immunoproteasome inhibitors” (Bioorg Med Chem Lett, 2018).
Active and inactive are the calls of the source. No cut-off for these calls is given here.

What was measured:
[1] = biological target: T1, Proteasome Macropain subunit MB1 (Homo sapiens) (UniProt P28074); test: Inhibition of 20s immunoproteasome beta5 chymotrypsin-like activity in human spleen using Suc-Leu-Leu-Val-Tyr-AMC as substrate at 50 uM after 10 mins by fluorescence assay relative to control
T1 sequence (whole entry): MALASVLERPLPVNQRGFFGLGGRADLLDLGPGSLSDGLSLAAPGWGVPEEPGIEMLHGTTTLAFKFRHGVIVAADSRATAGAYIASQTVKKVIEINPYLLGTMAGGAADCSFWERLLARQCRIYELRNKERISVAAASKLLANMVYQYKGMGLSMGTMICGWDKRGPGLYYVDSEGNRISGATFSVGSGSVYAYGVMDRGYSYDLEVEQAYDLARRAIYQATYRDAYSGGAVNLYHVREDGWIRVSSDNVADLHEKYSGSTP

[2] = biological target: T1, Proteasome Macropain subunit MB1 (Homo sapiens); test: Inhibition of 20s constitutive proteasome beta5 chymotrypsin-like activity in human erythrocytes using Suc-Leu-Leu-Val-Tyr-AMC as substrate at 50 uM after 10 mins by fluorescence assay relative to control; assay type: cell-based
[3] = biological target: Proteasome Macropain subunit (Homo sapiens) (UniProt P49721); test: Inhibition of 20s constitutive proteasome beta2 trypsin-like activity in human erythrocytes using Boc-Leu-Arg-Arg-AMC as substrate at 50 uM after 10 mins by fluorescence assay relative to control; assay type: cell-based
Chain of Proteasome Macropain subunit (Homo sapiens) (P49721 whole entry): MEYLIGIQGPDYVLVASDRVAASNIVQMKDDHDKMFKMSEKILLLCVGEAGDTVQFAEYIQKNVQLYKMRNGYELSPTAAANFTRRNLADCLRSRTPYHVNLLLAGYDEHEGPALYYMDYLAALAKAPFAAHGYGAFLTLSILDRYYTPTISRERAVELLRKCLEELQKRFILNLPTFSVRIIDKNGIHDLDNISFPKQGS

[4] = biological target: T2, Proteasome component C5 (Homo sapiens) (UniProt P20618); test: Inhibition of 20s constitutive proteasome beta1 caspase-like activity in human erythrocytes using Z-Leu-Leu-Glu-AMC as substrate at 50 uM after 10 mins by fluorescence assay relative to control; assay type: cell-based
T2 sequence (whole entry): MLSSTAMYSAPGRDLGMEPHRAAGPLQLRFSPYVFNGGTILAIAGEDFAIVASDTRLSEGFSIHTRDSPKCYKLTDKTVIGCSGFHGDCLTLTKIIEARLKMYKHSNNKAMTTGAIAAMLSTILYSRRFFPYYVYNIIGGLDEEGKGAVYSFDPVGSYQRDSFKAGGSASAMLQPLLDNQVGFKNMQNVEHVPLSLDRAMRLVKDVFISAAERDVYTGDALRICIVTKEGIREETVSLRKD

[5] = biological target: Proteasome Macropain subunit (Homo sapiens) (UniProt P49721); test: Inhibition of 20s immunoproteasome beta2 trypsin-like activity in human spleen using Boc-Leu-Arg-Arg-AMC as substrate at 50 uM after 10 mins by fluorescence assay relative to control
[6] = Growth inhibition of human MM1R cells after 24 hrs by MTT assay; assay type: functional; settings: MM.1R
[7] = biological target: T1, Proteasome Macropain subunit MB1 (Homo sapiens); test: Selectivity ratio of inhibitory concentration for 20s constitutive proteasome beta5 chymotrypsin-like activity in human erythrocytes to Ki for 20s immunoproteasome beta5 chymotrypsin-like activity in human spleen; assay type: cell-based
[8] = biological target: T3, Proteasome Macropain subunit MB1 (Homo sapiens, UniProt P28074); test: Inhibition of 20s constitutive proteasome beta5 chymotrypsin-like activity in human erythrocytes using Suc-Leu-Leu-Val-Tyr-AMC as substrate after 10 mins by fluorescence assay
T3 sequence (P28074 whole entry): T1 sequence (whole entry)

[9] = biological target: T1, Proteasome Macropain subunit MB1 (Homo sapiens); test: Reversible inhibition of 20s constitutive proteasome beta5 chymotrypsin-like activity in human erythrocytes using Suc-Leu-Leu-Val-Tyr-AMC as substrate at 50 uM preincubated for 30 mins followed by compound dilution measured after 30 mins by fluorescence assay; assay type: cell-based

SMILES	inhibition [1]	inhibition [2]	inhibition [3]	inhibition [4]	inhibition [5]	Ratio [7]	Ki [8]	inhibition [9]	IC50 [6]
O=C1CNC(=S)N1c1cccc2ccccc12	inactive	inactive	38%	47%	inactive				
COc1ccc(/C=C2\NC(=S)N(c3ccccc3)C2=O)cc1O		45%	37%	28%	45%	20			40.7 µM
O=C1CNC(=S)N1c1ccccc1	53%	47%	inactive	32%	inactive				
COc1ccc(/C=C2\NC(=S)N(c3ccccc3)C2=O)cc1OC			29%	58%	50%	7	13.6 µM	Active	36.7 µM
COc1cc(/C=C2\NC(=S)N(c3ccccc3)C2=O)ccc1O			32%	54%			23.6 µM		20.2 µM
CSc1ccc(/C=C2\NC(=S)N(c3ccccc3)C2=O)cc1	50%	28%		59%					
CC(C)CC(NC(=O)[C@H](CC(C)C)NC(=O)OCc1ccccc1)C(=O)N[C@H](C=O)CC(C)C (single isomer, unassigned) [MG-132]									14.4 µM

Now from value to molecule, other results behind:

inhibition [1]	inhibition [2]	inhibition [3]	inhibition [4]	inhibition [5]	Ratio [7]	Ki [8]	inhibition [9]	SMILES	IC50 [6]
56%	20%	57%						O=C1/C(=C/c2ccc(Oc3ccccc3)cc2)NC(=S)N1c1cccc2ccccc12	
	45%	35%	56%	29%				COc1ccc(/C=C2\NC(=S)N(c3ccccc3)C2=O)cc1	19.4 µM
		36%	52%	18%		17.9 µM		COc1cccc(/C=C2\NC(=S)N(c3ccccc3)C2=O)c1	25.9 µM
58%	13%	5%	inactive	53%				O=C1/C(=C/c2ccc(Oc3ccccc3)cc2)NC(=S)N1c1ccccc1	
56%	39%	inactive	inactive	32%				O=C1/C(=C/c2cccc(Oc3ccccc3)c2)NC(=S)N1c1ccccc1	
